{"source": "PubChem BioAssay (NCI)", "assay_in_all_cases": "NCI anticancer screen, dose series, 48 h", "key": {"NCI-H23 lung": {"system": "NCI-H23 lung"}, "NCI-H460 lung": {"system": "NCI-H460 lung"}, "NCI-H522 lung": {"system": "NCI-H522 lung"}, "NCI/ADR-RES ovarian": {"system": "NCI/ADR-RES ovarian"}, "OVCAR-3 ovarian": {"system": "OVCAR-3 ovarian"}, "OVCAR-4 ovarian": {"system": "OVCAR-4 ovarian"}, "OVCAR-5 ovarian": {"system": "OVCAR-5 ovarian"}, "OVCAR-8 ovarian": {"system": "OVCAR-8 ovarian"}, "PC-3 prostate": {"system": "PC-3 prostate"}, "RPMI-8226 leukemia": {"system": "RPMI-8226 leukemia"}, "RXF 393 renal": {"system": "RXF 393 renal"}, "SF-268 CNS": {"system": "SF-268 CNS"}, "SF-295 CNS": {"system": "SF-295 CNS"}, "SF-539 CNS": {"system": "SF-539 CNS"}, "SK-MEL-2 melanoma": {"system": "SK-MEL-2 melanoma"}, "SK-MEL-28 melanoma": {"system": "SK-MEL-28 melanoma"}, "SK-MEL-5 melanoma": {"system": "SK-MEL-5 melanoma"}, "SK-OV-3 ovarian": {"system": "SK-OV-3 ovarian"}, "SN12C renal": {"system": "SN12C renal"}, "SNB-19 CNS": {"system": "SNB-19 CNS"}, "SNB-75 CNS": {"system": "SNB-75 CNS"}, "SR leukemia": {"system": "SR leukemia"}, "T-47D breast": {"system": "T-47D breast"}, "TK-10 renal": {"system": "TK-10 renal"}, "U251 CNS": {"system": "U251 CNS"}, "UACC-257 melanoma": {"system": "UACC-257 melanoma"}, "UACC-62 melanoma": {"system": "UACC-62 melanoma"}, "UO-31 renal": {"system": "UO-31 renal"}}, "note": "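Results reflect a 48-hour exposure of cells in 96-well plates to compound at five concentrations. GI50: concentration for 50% inhibition of growth. TGI marks complete inhibition of growth.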", "data": [{"smiles": "C=C1CC[C@@H]2[C@]3(C)COC(c4cn[nH]c4-c4ccc(F)cc4)O[C@@H]3CC[C@@]2(C)[C@@H]1C/C=C1/C(=O)OCC1O", "note": "(stereo not given in full)", "values": [{"measurement": "TGI", "setting": "NCI-H23 lung", "result": 29.9, "unit": "µM"}, {"measurement": "GI50", "setting": "NCI-H460 lung", "result": 19.7, "unit": "µM"}, {"measurement": "TGI", "setting": "NCI-H460 lung", "result": 42.7, "unit": "µM"}, {"measurement": "GI50", "setting": "NCI-H522 lung", "result": 16.7, "unit": "µM"}, {"measurement": "TGI", "setting": "NCI-H522 lung", "result": 30.9, "unit": "µM"}, {"measurement": "GI50", "setting": "NCI/ADR-RES ovarian", "result": 17.7, "unit": "µM"}, {"measurement": "TGI", "setting": "NCI/ADR-RES ovarian", "result": 85.9, "unit": "µM"}, {"measurement": "GI50", "setting": "OVCAR-3 ovarian", "result": 15.9, "unit": "µM"}, {"measurement": "TGI", "setting": "OVCAR-3 ovarian", "result": 32.9, "unit": "µM"}, {"measurement": "GI50", "setting": "OVCAR-4 ovarian", "result": 27.5, "unit": "µM"}, {"measurement": "TGI", "setting": "OVCAR-4 ovarian", "result": "> 100", "unit": "µM"}, {"measurement": "GI50", "setting": "OVCAR-5 ovarian", "result": 18.2, "unit": "µM"}, {"measurement": "TGI", "setting": "OVCAR-5 ovarian", "result": 32.2, "unit": "µM"}, {"measurement": "GI50", "setting": "OVCAR-8 ovarian", "result": 23.3, "unit": "µM"}, {"measurement": "TGI", "setting": "OVCAR-8 ovarian", "result": "> 100", "unit": "µM"}, {"measurement": "GI50", "setting": "PC-3 prostate", "result": 15.6, "unit": "µM"}, {"measurement": "TGI", "setting": "PC-3 prostate", "result": 43.9, "unit": "µM"}, {"measurement": "GI50", "setting": "RPMI-8226 leukemia", "result": 11.5, "unit": "µM"}, {"measurement": "TGI", "setting": "RPMI-8226 leukemia", "result": 60.8, "unit": "µM"}, {"measurement": "GI50", "setting": "RXF 393 renal", "result": 13.7, "unit": "µM"}, {"measurement": "TGI", "setting": "RXF 393 renal", "result": 27, "unit": "µM"}, {"measurement": "GI50", "setting": "SF-268 CNS", "result": 20.7, "unit": "µM"}, {"measurement": "TGI", "setting": "SF-268 CNS", "result": 74.9, "unit": "µM"}, {"measurement": "GI50", "setting": "SF-295 CNS", "result": 16.6, "unit": "µM"}, {"measurement": "TGI", "setting": "SF-295 CNS", "result": 30.7, "unit": "µM"}, {"measurement": "GI50", "setting": "SF-539 CNS", "result": 14.5, "unit": "µM"}, {"measurement": "TGI", "setting": "SF-539 CNS", "result": 27.6, "unit": "µM"}, {"measurement": "GI50", "setting": "SK-MEL-2 melanoma", "result": 16.5, "unit": "µM"}, {"measurement": "TGI", "setting": "SK-MEL-2 melanoma", "result": 31.6, "unit": "µM"}, {"measurement": "GI50", "setting": "SK-MEL-28 melanoma", "result": 16.8, "unit": "µM"}, {"measurement": "TGI", "setting": "SK-MEL-28 melanoma", "result": 30.4, "unit": "µM"}, {"measurement": "GI50", "setting": "SK-MEL-5 melanoma", "result": 15.5, "unit": "µM"}, {"measurement": "TGI", "setting": "SK-MEL-5 melanoma", "result": 28.9, "unit": "µM"}, {"measurement": "GI50", "setting": "SK-OV-3 ovarian", "result": 21.8, "unit": "µM"}, {"measurement": "TGI", "setting": "SK-OV-3 ovarian", "result": 43.5, "unit": "µM"}, {"measurement": "GI50", "setting": "SN12C renal", "result": 15.4, "unit": "µM"}, {"measurement": "TGI", "setting": "SN12C renal", "result": 29.6, "unit": "µM"}, {"measurement": "GI50", "setting": "SNB-19 CNS", "result": 16, "unit": "µM"}, {"measurement": "TGI", "setting": "SNB-19 CNS", "result": 29.5, "unit": "µM"}, {"measurement": "GI50", "setting": "SNB-75 CNS", "result": 14.1, "unit": "µM"}, {"measurement": "TGI", "setting": "SNB-75 CNS", "result": 43.8, "unit": "µM"}, {"measurement": "GI50", "setting": "SR leukemia", "result": 16.7, "unit": "µM"}, {"measurement": "TGI", "setting": "SR leukemia", "result": 56.4, "unit": "µM"}, {"measurement": "GI50", "setting": "T-47D breast", "result": 15.7, "unit": "µM"}, {"measurement": "TGI", "setting": "T-47D breast", "result": 47.7, "unit": "µM"}, {"measurement": "GI50", "setting": "TK-10 renal", "result": 19, "unit": "µM"}, {"measurement": "TGI", "setting": "TK-10 renal", "result": 33, "unit": "µM"}, {"measurement": "GI50", "setting": "U251 CNS", "result": 12.9, "unit": "µM"}, {"measurement": "TGI", "setting": "U251 CNS", "result": 30.5, "unit": "µM"}, {"measurement": "GI50", "setting": "UACC-257 melanoma", "result": 22.3, "unit": "µM"}, {"measurement": "TGI", "setting": "UACC-257 melanoma", "result": 69.2, "unit": "µM"}, {"measurement": "GI50", "setting": "UACC-62 melanoma", "result": 14.3, "unit": "µM"}, {"measurement": "TGI", "setting": "UACC-62 melanoma", "result": 27.3, "unit": "µM"}, {"measurement": "GI50", "setting": "UO-31 renal", "result": 13.7, "unit": "µM"}, {"measurement": "TGI", "setting": "UO-31 renal", "result": 26.6, "unit": "µM"}]}]}
